# According to US9441023B2, “Peptide YY analogs” (GlaxoSmithKline Intellectual Property Development Limited, priority 2013, dated 2016):
# Assays:
# [1] = chronic (26 days) efficacy study in diabetic ZDF rats: glucose and HbA1c; assay type: in vivo, Zucker Diabetic Fatty (ZDF) rat
# Description: Male ZDF rats were 12 weeks old at the start of the study (Charles River, Inc., Boston, Mass.). […] Baseline fat mass and non-fat mass measurements were taken 3 days before the start of peptide infusion and on day 26 of treatment using a QMR instrument (Echo Medical Systems, Houston, Tex.). […] P-values <0.05 were considered to indicate a significant difference between treatment groups.
# [2] = chronic (41 days) efficacy study in DIO Long Evans rats: body weight, body composition, food intake; assay type: in vivo, Long Evans rat; details: DIO LE rats
# Description: Rats were 17 weeks old at the start of the study. The rats were housed 1 per cage and given ad libitum access to TD.95217 chow and water, maintained on a 12 h light/dark cycle from 5:00 AM to 5:00 PM at 21° C. and 50% relative humidity and allowed to acclimate for at least 7 days prior to baseline measurements. Baseline fat mass and non-fat mass measurements were taken 3 days before the start of peptide infusion and on day 40 of treatment using a QMR instrument (Echo Medical Systems, Houston, Tex.). […] Each rat was implanted with two osmotic pumps subcutaneously in the scapula region containing vehicle or peptide according to their treatment group. Body weight and food intake were measured twice per week beginning three days before the 41-day treatment period. On day 41 of treatment, whole blood was collected by cardiac stick under isoflurane anesthesia. Plasma and serum were then prepared from the whole blood for serum chemistry analysis. All the data are presented as mean±SEM. The data were analyzed in either Prism (GraphPad Software, Inc., La Jolla, Calif.) or Excel using a Student's T-test to compare each group to the appropriate control group. P-values <0.05 were considered to indicate a significant difference between treatment groups.
# [3] = cumulative food intake, lean mice (Model A), BioDaQ system; assay type: in vivo; details: lean male C57BL/6 mice, 1 mg/kg s.c., relative to vehicle, negative = reduction
# Description: (§1) Cumulative food intake after 6 h was determined for the PYY analogs in either lean (Model A) or diet-induced obese (DIO) (Model B) C57BL/6 mice in a BioDaQ system for continuous monitoring of food intake (Research Diets Inc., New Brunswick, N.J.). […] Mice were placed singly into the BioDaQ cages and acclimatized for a minimum of 6 days and were allowed ad libitum access to food and water. Approximately 1 hour prior to lights-out, animals were dosed subcutaneously with either vehicle (20 mM Acetate buffer, pH 4.9 or 20% DMSO in water) or analogs dissolved in vehicle (1 mg/kg) (8 animals per group). Once all animals have been dosed, feeder gates were opened providing ad-libitum access to food. Continuous food intake was monitored and collected for 15 hours. […] P-values <0.05 were considered to indicate a significant difference between treatment groups.
# [4] = target: T1, human Neuropeptide Y receptor type 2 (Homo sapiens, UniProt P49146); assay: melanophore assay, potency at human Neuropeptide Y receptor type 2; assay type: cell-based; details: Table 1, read-out: hNPY Y2 pEC50 (converted)
# T1 construct: expressed in transfected cells; host or cells: melanophores (own knowledge: Xenopus laevis melanophores transfected with the receptor, as in the cited protocol)
# T1 sequence (P49146 1-381): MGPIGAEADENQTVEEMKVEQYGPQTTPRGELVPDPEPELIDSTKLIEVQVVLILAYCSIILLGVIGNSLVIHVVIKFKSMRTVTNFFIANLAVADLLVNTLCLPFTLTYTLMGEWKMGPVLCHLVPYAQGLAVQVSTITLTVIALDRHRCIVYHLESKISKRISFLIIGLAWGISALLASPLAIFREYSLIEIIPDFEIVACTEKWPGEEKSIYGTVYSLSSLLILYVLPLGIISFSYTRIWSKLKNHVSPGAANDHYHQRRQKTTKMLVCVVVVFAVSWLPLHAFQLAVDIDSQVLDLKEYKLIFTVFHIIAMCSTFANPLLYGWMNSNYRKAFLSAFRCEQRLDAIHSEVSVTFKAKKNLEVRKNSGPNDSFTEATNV
# [5] = cumulative food intake, diet-induced obese mice (Model B), BioDaQ system; assay type: in vivo; details: Table 1; DIO male C57BL/6 mice, 1 mg/kg s.c., cumulative food intake after 6 h, relative to vehicle; negative = reduction
# Description: as §1
# [6] = s.c. infusion, used as study dose
# [7] = Table 1, cumulative food intake after 6 h
compound,measurement,setting,value
PYY(3-36)NH2,ΔΔGlucose,"[1]; 26 days, change from baseline and vehicle control, ED20 doses",−33.1 ± 17^ mg/dL
same,weight loss vs. vehicle,"[2]; 40 days, s.c. osmotic pumps, ED50 doses",−1.3%
same,inhibition of cumulative food intake,"[2]; chronic infusion, vs. vehicle control",−0.7%
exendin-4,ED20 for HbA1c lowering,[1]; [6],0.0055 mg/kg/day
same,ED50 for weight loss,[2]; [6],0.15 mg/kg/day
CC(C)C[C@H](NC(=O)[C@H](CC(=O)O)NC(=O)[C@H](C)NC(=O)[C@H](Cc1ccc(O)cc1)NC(=O)[C@H](Cc1ccc(O)cc1)NC(=O)[C@H](CCCNC(=N)N)NC(=O)[C@H](CC(N)=O)NC(=O)[C@H](Cc1c[nH]c2ccccc12)NC(=O)[C@H](CCC(=O)O)NC(=O)[C@H](CCC(=O)O)NC(=O)[C@@H]1CCCN1C(=O)[C@H](CO)NC(=O)[C@H](C)NC(=O)[C@H](CC(=O)O)NC(=O)[C@H](CCCCN)NC(=O)CNC(=O)[C@@H]1CCCN1C(=O)[C@H](C)NC(=O)[C@H](CCC(=O)O)NC(=O)[C@@H]1CCCN1C(=O)[C@H](CCCCN)NC(=O)[C@@H]1CCCN1)C(=O)N[C@@H](CCCNC(=N)N)C(=O)N[C@@H](CCCCN)C(=O)N[C@@H](Cc1ccc(O)cc1)C(=O)N[C@@H](CC(C)C)C(=O)N[C@@H](CC(N)=O)C(=O)N[C@@H](Cc1c[nH]c2ccccc12)C(=O)N[C@@H](CC(C)C)C(=O)N[C@H](C(=O)N[C@@H](CCCNC(=N)N)C(=O)N[C@@H](CCC(N)=O)C(=O)N[C@@H](CCCNC(=N)N)C(=O)N[C@@H](Cc1ccc(O)cc1)C(N)=O)[C@@H](C)O [Example 4],"% reduction in food intake, model A",[3]; [7],−83%
same,EC50,[4],20 pM
CC(C)C[C@H](NC(=O)[C@H](CO)NC(=O)[C@H](C)NC(=O)[C@H](Cc1ccc(O)cc1)NC(=O)[C@H](Cc1ccc(O)cc1)NC(=O)[C@H](CCCNC(=N)N)NC(=O)[C@H](CC(N)=O)NC(=O)[C@H](Cc1c[nH]c2ccccc12)NC(=O)[C@H](CCC(=O)O)NC(=O)[C@H](CCC(=O)O)NC(=O)[C@@H]1CCCN1C(=O)[C@H](CO)NC(=O)[C@H](C)NC(=O)[C@H](CC(=O)O)NC(=O)[C@H](CCCCN)NC(=O)CNC(=O)[C@@H]1CCCN1C(=O)[C@H](Cc1c[nH]cn1)NC(=O)[C@H](CCC(=O)O)NC(=O)[C@@H]1CCCN1C(=O)[C@H](CCCCN)NC(=O)[C@@H]1CCCN1)C(=O)N[C@@H](CCCNC(=N)N)C(=O)N[C@@H](CCCCN)C(=O)N[C@@H](Cc1ccc(O)cc1)C(=O)N[C@@H](CC(C)C)C(=O)N[C@@H](CC(N)=O)C(=O)N[C@@H](Cc1c[nH]c2ccccc12)C(=O)N[C@H](C(=O)N[C@H](C(=O)N[C@@H](CCCNC(=N)N)C(=O)N[C@@H](CCC(N)=O)C(=O)N[C@@H](CCCNC(=N)N)C(=O)N[C@@H](Cc1ccc(O)cc1)C(N)=O)[C@@H](C)O)C(C)C [Example 25],"% reduction in food intake, model B",[5],−68%
CC(C)C[C@H](NC(=O)[C@H](CO)NC(=O)[C@H](C)NC(=O)[C@H](Cc1ccc(O)cc1)NC(=O)[C@H](Cc1ccc(O)cc1)NC(=O)[C@H](CCCNC(=N)N)NC(=O)[C@H](CC(N)=O)NC(=O)[C@H](CC(C)C)NC(=O)[C@H](CCC(=O)O)NC(=O)[C@H](CCC(=O)O)NC(=O)[C@@H]1CCCN1C(=O)[C@H](CO)NC(=O)[C@H](C)NC(=O)[C@H](CC(=O)O)NC(=O)[C@H](CCCCN)NC(=O)CNC(=O)[C@@H]1CCCN1C(=O)[C@H](C)NC(=O)[C@H](CCC(=O)O)NC(=O)[C@@H]1CCCN1C(=O)[C@H](CCCCN)NC(=O)[C@@H]1CCCN1)C(=O)N[C@@H](CCCNC(=N)N)C(=O)N[C@@H](CCCCN)C(=O)N[C@@H](Cc1ccc(O)cc1)C(=O)N[C@@H](CC(C)C)C(=O)N[C@@H](CC(N)=O)C(=O)N[C@@H](Cc1c[nH]c2ccccc12)C(=O)N[C@@H](CC(C)C)C(=O)N[C@H](C(=O)N[C@@H](CCCNC(=N)N)C(=O)N[C@@H](CCC(N)=O)C(=O)N[C@@H](CCCNC(=N)N)C(=O)N[C@@H](Cc1ccc(O)cc1)C(N)=O)[C@@H](C)O [Example 2],"% reduction in food intake, model A",[3]; [7],−50%
H-PEPEHPGCDASPEDQNKYHASLRKYLNWVTRQRY-NH2 [Peptide 10],"% reduction in food intake, model A","[3]; Table 2, 6 h time point",−21%
